Data taken from ChEMBL document CHEMBL1201862, “PubChem BioAssay data set” (2004).
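96-well plates; 48 h exposure; 5 concentrations. Endpoints by linear interpolation between flanking doses. Not reached: highest tested concentration assigned. GI50 = concentration required for 50% inhibition of growth.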 Activity calls are given as the source filed them. Cut-off read from the data, not from the text of the source: active = GI50 up to about 1.1 µM and inactive = higher.

What was measured:
Experiment in all cases: NCI-60 cell line screen, 48 h
[1] = tested on: HT-29
[2] = tested on: SF-295
[3] = tested on: RXF 393
[4] = tested on: KM12
[5] = tested on: SK-OV-3
[6] = tested on: 786-0
[7] = tested on: BT-549
[8] = tested on: SK-MEL-2
[9] = tested on: OVCAR-8
[10] = tested on: MDA-MB-435
[11] = tested on: HCC 2998
[12] = tested on: MOLT-4
[13] = tested on: DU-145
[14] = tested on: NCI/ADR-RES
[15] = tested on: SK-MEL-5
[16] = tested on: HCT-15
[17] = tested on: HCT-116
[18] = tested on: LOX IMVI
[19] = tested on: SF-268

Row | Structure (SMILES) | GI50 [1] | GI50 [2] | GI50 [3] | GI50 [4] | GI50 [5] | GI50 [6] | GI50 [7] | GI50 [8] | GI50 [9] | GI50 [10] | GI50 [11] | GI50 [12] | GI50 [13] | GI50 [14] | GI50 [15] | GI50 [16] [µM] | GI50 [17] | GI50 [18] | GI50 [19]
1 | CCOC(C[Se]CC(OCC)OCC)OCC | 64.9 µM (inactive) | 26.1 µM (inactive) | 28.4 µM (inactive) | 53.2 µM (inactive) | 74.6 µM (inactive) | > 100 µM (inactive) | 31.8 µM (inactive) | 48.5 µM (inactive) | 27.2 µM (inactive) | 36.4 µM (inactive) | > 100 µM (inactive) | 37.8 µM (inactive) | 37.5 µM (inactive) | 50.9 µM (inactive) | 15.7 µM (inactive) | 57.9 | 32.7 µM (inactive) | 22.9 µM (inactive) | 
2 | Cc1ccc(S(=O)(=O)N2CCCCN(S(=O)(=O)c3ccc(C)cc3)Cc3ccccc3OCCOCCOc3c4cccc3Cc3cccc5c3OCCOCCOc3ccccc3CN(S(=O)(=O)c3ccc(C)cc3)CCCN(S(=O)(=O)c3ccc(C)cc3)Cc3ccccc3OCCOCCOc3c(cccc3C4)Cc3cccc(c3OCCOCCOc3ccccc3C2)C5)cc1 | > 100 µM (inactive) | > 100 µM (inactive) | > 100 µM (inactive) | > 100 µM (inactive) | > 100 µM (inactive) | > 100 µM (inactive) | > 100 µM (inactive) | > 100 µM (inactive) | > 100 µM (inactive) | > 100 µM (inactive) | > 100 µM (inactive) | > 100 µM (inactive) | > 100 µM (inactive) | > 100 µM (inactive) | > 100 µM (inactive) | > 100 | > 100 µM (inactive) | > 100 µM (inactive) | > 100 µM (inactive)
3 | COc1cc([C@H]2CC(=O)C[C@@H](c3cc(OC)c(OC)c(OC)c3)C23C(=O)c2ccccc2C3=O)cc(OC)c1OC | > 100 µM (inactive) | > 100 µM (inactive) | > 100 µM (inactive) | > 100 µM (inactive) | > 100 µM (inactive) | > 100 µM (inactive) | > 100 µM (inactive) | > 100 µM (inactive) | > 100 µM (inactive) | > 100 µM (inactive) | > 100 µM (inactive) | > 100 µM (inactive) | > 100 µM (inactive) | > 100 µM (inactive) | > 100 µM (inactive) | > 100 | > 100 µM (inactive) | > 100 µM (inactive) | > 100 µM (inactive)
4 | COc1c(O)ccc(C2=Cc3ccc(O)cc3OC2)c1OC | 30.4 µM (inactive) | 22.8 µM (inactive) | 18.7 µM (inactive) | 7.33 µM (inactive) | 24 µM (inactive) | 16.3 µM (inactive) | 23.6 µM (inactive) | 23.4 µM (inactive) | 18 µM (inactive) | 7.64 µM (inactive) | 21 µM (inactive) | 6.82 µM (inactive) | 26.7 µM (inactive) | 14.5 µM (inactive) | 16.1 µM (inactive) | 14.1 | 24.3 µM (inactive) | 26.1 µM (inactive) | 20.2 µM (inactive)
5 | COc1ccc2cc(CNCCCCCCCCNCc3ccc4cc(OC)ccc4c3)ccc2c1 | 2 µM (inactive) | 5.3 µM (inactive) | 8.07 µM (inactive) | 3.92 µM (inactive) |  | 5.36 µM (inactive) | 6.67 µM (inactive) | 4.71 µM (inactive) | 6.61 µM (inactive) | 4.94 µM (inactive) | 1.85 µM (inactive) | 2.77 µM (inactive) | 6.97 µM (inactive) | 6.65 µM (inactive) | 11.7 µM (inactive) | 2 | 4.42 µM (inactive) | 3.94 µM (inactive) | 4.34 µM (inactive)
6 | COc1ccc(/C=C2\CCS(=O)(=O)c3ccccc3C2=O)cc1OC | 36.7 µM (inactive) | 43.6 µM (inactive) | 54.8 µM (inactive) | 28.4 µM (inactive) | 51.3 µM (inactive) | 28.1 µM (inactive) | 16.6 µM (inactive) | 35.4 µM (inactive) | 19.1 µM (inactive) | 30.7 µM (inactive) | 14.9 µM (inactive) | 46.2 µM (inactive) | 23.6 µM (inactive) | 28.8 µM (inactive) |  | 11.9 | 28.1 µM (inactive) | 19.1 µM (inactive) | 29.3 µM (inactive)
